In patent US12539299B2, “Oral formulation of a therapeutic compound” (ARDELYX, INC., priority 2020, dated 2026):

Columns and labels:
[1] = Dissolution of capsule and tablet prototypes, USP apparatus II (paddle), 75 rpm, 900 mL media, 37° C.; format: physicochemical; details: comparison between forms, prototypes or pH
Protocol: FIG. 1: Dissolution of 15 mg tenapanor HCl tablets and tenapanor free base tablets in FeSSIF media pH 5.0. Dissolution method: USP apparatus II (paddle), 75 rpm, 900 mL of media at 37° C. FIG. 2: Dissolution of capsule I, neat tenapanor HCl powder in HPMC capsules (Vcaps® from Capsugel®) in FaSSIF media pH 6.5, FeSSIF media pH 5 and in 0.1N HCl. Dissolution method: USP apparatus II (paddle), 75 rpm, 900 mL of media at 37° C. […] Below are the composition of some of the capsule and tablet formulations as well as maximum dissolution observed in 0.1N HCl, pH 5 FeSSIF media and pH 6 FaSSIF media. Tablets from the same prototype designation differed by tenapanor loading and salt/free-base form but had the same disintegrant, glidant and lubricant excipients in the same % w/w but varied in the % w/w of tenapanor and filler making up the remainder of tablet.

[2] = system: patients with hyperphosphatemia; details: clinical; cited from earlier work
[3] = system: Irritable Bowel Syndrome with Constipation (IBS-C) patients; details: bis-HCl salt form, clinical; cited from earlier work
[4] = system: animal model of IBS-like colonic hypersensitivity; details: cited from earlier work

dissolution, comparison in words [1]: better dissolution at low pH
SMILES: CN1Cc2c(Cl)cc(Cl)cc2[C@H](c2cccc(S(=O)(=O)NCCOCCOCCNC(=O)NCCCCNC(=O)NCCOCCOCCNS(=O)(=O)c3cccc([C@@H]4CN(C)Cc5c(Cl)cc(Cl)cc54)c3)c2)C1 [tenapanor, 1-[2-[2-[2-[[3-[(4S)-6,8-dichloro-2-methyl-3,4-dihydro-1H-isoquinolin-4-yl]phenyl]sulfonylamino]ethoxy]ethoxy]ethyl]-3-[4-[2-[2-[2-[[3-[(4S)-6,8-dichloro-2-methyl-3,4-dihydro-1H-isoquinolin-4-yl]phenyl]sulfonylamino]ethoxy]ethoxy]ethylcarbamoylamino]butyl]urea]
serum phosphate [2]: lower serum phosphate | abdominal pain [3]: reduce abdominal pain | colonic sensory neuronal excitability and TRPV1 currents [4]: normalized colonic sensory neuronal excitability and Transient Receptor Potential Vanilloid 1 (TRPV1) currents | visceral hyperalgesia [4]: reduced visceral hyperalgesia
